Source: ChEMBL document CHEMBL5375973, “Design and Synthesis of Novel Near-Infrared Fluorescence Probes Based on an Open Conformation of a Cytochrome P450 1B1 Complex for Molecular Imaging of Colorectal Tumors” (J Med Chem, 2023)

Assays:
HFF-1 = test: Cytotoxicity against human HFF-1 cells at 1 to 10 uM incubated for 24 hrs by MTT assay; assay type: toxicity, cell-based; conditions: hff-1, 24 h, dose 1-10 µM
HCT-15 = test: Cytotoxicity against human HCT-15 cells assessed as cell viability at 10 uM incubated for 24 hrs by MTT assay; assay type: functional; conditions: read-out: Activity
Cytochrome P450 1B1 [1] = biological target: T1, Cytochrome P450 1B1 (Homo sapiens, UniProt Q16678); test: Binding affinity to CYP1B1 in human HCT-15 cells assessed as apparent dissociation constant incubated for 1 hr by flow cytometry analysis; assay type: ADME, cell-based; conditions: read-out: Kd(app)
T1 sequence (Q16678 whole entry): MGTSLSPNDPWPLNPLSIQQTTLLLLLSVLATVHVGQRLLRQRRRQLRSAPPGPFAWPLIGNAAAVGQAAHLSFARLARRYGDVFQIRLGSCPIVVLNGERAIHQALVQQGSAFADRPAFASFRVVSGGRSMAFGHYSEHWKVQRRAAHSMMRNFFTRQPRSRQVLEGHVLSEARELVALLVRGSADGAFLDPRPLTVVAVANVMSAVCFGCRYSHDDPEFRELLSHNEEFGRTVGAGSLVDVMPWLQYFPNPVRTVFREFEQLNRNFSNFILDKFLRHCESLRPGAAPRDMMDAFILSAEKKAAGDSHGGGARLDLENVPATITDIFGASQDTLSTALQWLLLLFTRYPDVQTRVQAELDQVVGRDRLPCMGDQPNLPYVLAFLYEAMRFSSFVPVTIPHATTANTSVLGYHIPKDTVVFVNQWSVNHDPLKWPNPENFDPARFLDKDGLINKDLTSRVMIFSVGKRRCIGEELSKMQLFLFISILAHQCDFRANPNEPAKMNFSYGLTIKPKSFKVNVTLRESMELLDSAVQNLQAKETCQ

Cytochrome P450 1B1 [2] = biological target: T1, Cytochrome P450 1B1; test: Binding affinity to CYP1B1 in human HFF-1 cells assessed as increase in fluorescence signal at 0.5 to 1 uM incubated for 1 hr by DAPI staining based confocal laser scanning microscopic analysis; assay type: ADME, cell-based; conditions: hff-1, 1 h, dose 0.5-1 µM
Cytochrome P450 1B1 [3] = biological target: T1, Cytochrome P450 1B1; test: Binding affinity to CYP1B1 in human HCT-15 cells assessed as increase in fluorescence signal at 0.5 to 1 uM incubated for 1 hr by DAPI staining based confocal laser scanning microscopic analysis; assay type: ADME, cell-based; conditions: hct-15, 1 h, dose 0.5-1 µM
Cytochrome P450 1B1 [4] = biological target: T1, Cytochrome P450 1B1; test: Binding affinity to CYP1B1 in human HCT-15 cells assessed as increase in fluorescence signal at cytoplasm at 0.5 to 1 uM incubated for 1 hr by DAPI staining based confocal laser scanning microscopic analysis; assay type: ADME, cell-based; conditions: hct-15, 1 h, dose 0.5-1 µM
Cytochrome P450 1B1 [5] = biological target: T1, Cytochrome P450 1B1; test: Binding affinity to CYP1B1 in human HCT-15 cells assessed as increase in fluorescence signal at nucleus at 0.5 to 1 uM incubated for 1 hr by DAPI staining based confocal laser scanning microscopic analysis; assay type: ADME, cell-based; conditions: hct-15, 1 h, dose 0.5-1 µM
Cytochrome P450 1B1 [6] = biological target: T1, Cytochrome P450 1B1; test: Binding affinity to CYP1B1 in human HCT-15 cells assessed as increase in fluorescence signal at 0.5 to 1 uM incubated for 1 hr in presence of compound 14c by DAPI staining based confocal laser scanning microscopic analysis; assay type: ADME, cell-based; conditions: hct-15, 1 h, dose 0.5-1 µM
[7] = Drug distribution in BALB/C mouse xenografted with human HCT-15 cells assessed as increase in fluorescence intensity in tumor at 12 nmol at iv administration observed after 2 hr by IVIS imaging analysis; assay type: ADME, organism-based, Neoplasm; conditions: in vivo
[8] = Drug distribution in BALB/C mouse xenografted with human HCT-15 cells assessed as increase in fluorescence intensity in tumor at 12 nmol at iv administration observed after 6 hr by IVIS imaging analysis; assay type: ADME, organism-based, Neoplasm; conditions: in vivo
[9] = Drug distribution in BALB/C mouse xenografted with human HCT-15 cells assessed as increase in fluorescence intensity in tumor at 12 nmol at iv administration in presence of CYP1B1 inhibitor, ANF observed after 2 to 6 hrs by IVIS imaging analysis; assay type: ADME, organism-based, Neoplasm; conditions: in vivo, time 2-6 hrs
[10] = Drug distribution in BALB/C mouse xenografted with human HCT-15 cells by measuring fluorescence intensity ratio in tumor at 12 nmol at iv administration observed after 2 hrs by IVIS imaging analysis; assay type: ADME, organism-based, Neoplasm; conditions: in vivo
[11] = Drug distribution in BALB/C mouse xenografted with human HCT-15 cells by measuring fluorescence intensity ratio in tumor at 12 nmol at iv administration observed after 4 hrs by IVIS imaging analysis; assay type: ADME, organism-based, Neoplasm; conditions: in vivo
[12] = Drug distribution in BALB/C mouse xenografted with human HCT-15 cells by measuring fluorescence intensity ratio in tumor at 12 nmol at iv administration observed after 6 hrs by IVIS imaging analysis; assay type: ADME, organism-based, Neoplasm; conditions: in vivo
[13] = Drug distribution in BALB/C mouse xenografted with human HCT-15 cells by measuring fluorescence intensity ratio in tumor at 12 nmol at iv administration observed after 24 hrs by IVIS imaging analysis; assay type: ADME, organism-based, Neoplasm; conditions: in vivo
[14] = Drug distribution in BALB/C mouse xenografted with human HCT-15 cells by measuring fluorescence intensity ratio in muscle tissue at 12 nmol at iv administration observed after 24 hrs by IVIS imaging analysis; assay type: ADME, organism-based; conditions: in vivo
[15] = Drug distribution in BALB/C mouse xenografted with human HCT-15 cells by measuring fluorescence intensity ratio in tumor at 12 nmol at iv administration in presence of CYP1B1 inhibitor, ANF observed after 2 hrs by IVIS imaging analysis; assay type: ADME, organism-based, Neoplasm; conditions: in vivo
[16] = Drug distribution in BALB/C mouse xenografted with human HCT-15 cells by measuring fluorescence intensity ratio in tumor at 12 nmol at iv administration in presence of CYP1B1 inhibitor, ANF observed after 4 hrs by IVIS imaging analysis; assay type: ADME, organism-based, Neoplasm; conditions: in vivo
[17] = Drug distribution in BALB/C mouse xenografted with human HCT-15 cells by measuring fluorescence intensity ratio in tumor at 12 nmol at iv administration in presence of CYP1B1 inhibitor, ANF observed after 6 hrs by IVIS imaging analysis; assay type: ADME, organism-based, Neoplasm; conditions: in vivo
[18] = Drug distribution in BALB/C mouse xenografted with human HCT-15 cells by measuring fluorescence intensity ratio in tumor at 12 nmol at iv administration in presence of CYP1B1 inhibitor, ANF observed after 24 hrs by IVIS imaging analysis; assay type: ADME, organism-based, Neoplasm; conditions: in vivo
[19] = Drug distribution in BALB/C mouse xenografted with human HCT-15 cells by measuring fluorescence intensity ratio in muscle tissue at 12 nmol at iv administration in presence of CYP1B1 inhibitor, ANF observed after 24 hrs by IVIS imaging analysis; assay type: ADME, organism-based; conditions: in vivo
[20] = Drug distribution in BALB/C mouse xenografted with human HCT-15 cells assessed as increase in fluorescence intensity in liver at 12 nmol at iv administration observed after 24 hrs by IVIS imaging analysis; assay type: ADME, organism-based; conditions: in vivo
[21] = Drug distribution in BALB/C mouse xenografted with human HCT-15 cells assessed as increase in photoacoustic signal in tumor at 12 nmol at iv administration observed after 2 hrs by photoacoustic imaging analysis; assay type: ADME, organism-based, Neoplasm; conditions: in vivo
[22] = Drug distribution in BALB/C mouse xenografted with human HCT-15 cells assessed as increase in photoacoustic signal in tumor at 12 nmol at iv administration observed after 6 hrs by photoacoustic imaging analysis; assay type: ADME, organism-based, Neoplasm; conditions: in vivo
[23] = Drug distribution in BALB/C mouse xenografted with human HCT-15 cells assessed as increase in photoacoustic signal in tumor at 12 nmol at iv administration observed after 24 hrs by photoacoustic imaging analysis; assay type: ADME, organism-based, Neoplasm; conditions: in vivo
[24] = Stability of the compound assessed as drug degradation observed after 24 hrs by HPLC analysis; assay type: physicochemical

CCN1/C(=C/C=C/C=C/C2=[N+](CCCCCC(=O)NCCOCCOCCOCCOc3cc(F)cc(-c4cc(=O)c5cc(OC)c6c(OC)ccc(OC)c6c5o4)c3)c3ccc4c(S(=O)(=O)[O-])cc(S(=O)(=O)O)cc4c3C2(C)C)C(C)(C)c2c1ccc1c(S(=O)(=O)O)cc(S(=O)(=O)O)cc21
Activity (HFF-1): Non-Toxic | viability at 10 µM (HCT-15): > 80% | Kd (Cytochrome P450 1B1 [1]): 93.7 nM | Activity (Cytochrome P450 1B1 [2]): Not Active | Activity (Cytochrome P450 1B1 [3]): Active | Activity (Cytochrome P450 1B1 [4]): Active | Activity (Cytochrome P450 1B1 [5]): Active | Activity (Cytochrome P450 1B1 [6]): Not Active | Drug uptake [7]: Active | Drug uptake [8]: Active | Drug uptake [9]: Not Active | Ratio [10]: 1.92 | Ratio [11]: 1.95 | Ratio [12]: 2.15 | Ratio [13]: 1.69 | Ratio [14]: 26.51 | Ratio [15]: 1.06 | Ratio [16]: 1.19 | Ratio [17]: 1.32 | Ratio [18]: 1.34 | Ratio [19]: 12.1 | Drug uptake [20]: Active | Drug uptake [21]: Active | Drug uptake [22]: Active | Drug uptake [23]: Not Active | Stability [24]: Stable
